Read-outs that look alike come from different tables or passages of the source.
What was measured:
[1] = system: primary cultured guinea-pig urinary bladder (GPB) cells; assay: Membrane hyperpolarization (MHP) assay, DiBAC(4)3 fluorescence on FLIPR; assay type: cell-based; conditions: for Maximal Response (%P1075): maximal steady-state hyperpolarization, normalized to response with 10 μM P1075 (100%); for EC50: Cavia porcellus, concentration eliciting 50% of the maximal response of the test sample
Description: Compounds were evaluated for potassium channel opening activity using primary cultured guinea-pig urinary bladder (GPB) cells.
For the preparation of urinary bladder smooth muscle cells, urinary bladders were removed from male guinea-pigs (Hartley, Charles River, Wilmington, Mass.) weighing 300-400 g and placed in ice-cold Ca^2+-free Krebs solution (composition, mM: KCl, 2.7, KH2PO4, 1.5; NaCl, 75, Na2HPO4, 9.6; Na2HPO4. 7H2O, 8; MgSO4, 2; glucose, 5; HEPES, 10; pH 7.4). Cells were isolated by enzymatic dissociation as previously described with minor modifications (Klockner and Isenberg, Pflugers Arch. (1985), 405, 329-339), hereby incorporated by reference. The bladder was cut into small sections and incubated in 5 mL of the Kreb's solution containing 1 mg/mL collagenase (Sigma, St. Louis, Mo.) and 0.2 mg/mL pronase (Calbiochem, La Jolla, Calif.) with continuous stirring in a cell incubator for 30 minutes. The mixture was then centrifuged at 1300×g for 5 minutes, and the pellet resuspended in Dulbecco's PBS (GIBCO, Gaithersburg, Md.) and recentrifuged to remove residual enzyme. The cell pellet was resuspended in 5 mL growth media (composition: Dulbecco's modified Eagle's medium supplemented with 10% fetal bovine serum, 100 units/mL penicillin, 100 units/mL streptomycin and […] amphotericin B) and further dissociated by pipetting the suspension through a flame-polished Pasteur pipette and passing it through a polypropylene mesh membrane (Spectrum, Houston, Tex.). The cell density was adjusted to 100,000 cells/mL by resuspension in growth media Cells were plated in clear-bottomed black 96-well plates (Packard) for membrane potential studies at a density of 20,000 cells/well and maintained in a cell incubator with 90% air: 10% CO2 until confluent. Cells were confirmed to be of smooth muscle type by cytoskeletal staining using a monoclonal mouse anti human-α-smooth muscle actin (Biomeda, Foster City, Calif.).
Functional activity at potassium channels was measured by evaluating changes in membrane potential using the bis-oxonol dye DiBAC(4)3 (Molecular Probes) in a 96-well cell-based kinetic assay system, Fluorescent Imaging Plate Reader (FLIPR) (K. S. Schroeder et al., J. Biomed. Screen., v. 1 pp. 75-81 (1996)), hereby incorporated by reference. DiBAC(4)3 is an anionic potentiometric probe which partitions between cells and extracellular solution in a membrane potential-dependent manner. With increasing membrane potential (for example, K^+ depolarization), the probe further partitions into the cell; this is measured as an increase in fluorescence due to dye interaction with intracellular lipids and proteins. Conversely, decreasing membrane potential (hyperpolarization by potassium channel openers) evokes a decrease in fluorescence.
Confluent guinea-pig urinary bladder cells cultured in black clear-bottomed 96-well plates were rinsed twice with […] assay buffer (composition, mM: HEPES, 20; NaCl, 120; KCl, 2; CaCl2, 2, MgCl2, 1, glucose, 5; pH 7.4 at 25° C.) containing 5 μM DiBAC(4)3 and incubated with […] of the buffer in a cell incubator for 30 minutes at 37° C. to ensure dye distribution across the membrane. After recording the baseline fluorescence for 5 minutes, the reference or test compounds, prepared at 10 times the concentration in the assay buffer, were added directly to the wells. Changes in fluorescence were monitored for an additional 25 minutes. Hyperpolarization responses were corrected for any background noise and were normalized to the response observed with 10 μM of the reference compound P1075 (assigned as 100%), a potent opener of smooth muscle KATP channels (Quast et al., Mol. Phanmacol., v. 43 pp. 474-481 (1993)).
Routinely, five concentrations of P1075 or test compounds (log or half-log dilutions) were evaluated and the maximal steady-state hyperpolarization values (expressed as % relative to P1075) plotted as a function of concentration. […]

[2] = system: Landrace pig bladder strips; assay: Functional potassium channel opening activity in isolated, field-stimulated bladder strips; conditions: for Index: ED50 for P1075 divided by ED50 for test agonist in a given tissue, averaged; for EC50: amount causing 50% of the agent's maximal response, field stimulation 0.05 Hz, 0.5 ms, 20 volts, read-out: ED50 (the source's name); for Emax / Efficacy (%P1075): maximal efficacy on stimulated twitch, relative to P1075
Description: Compound were evaluated for functional potassium channel opening activity using tissue strips obtained from Landrace pig bladders.
Landrace pig bladders were obtained from female Landrace pigs of 9-30 kg. Landrace pig were euthanized with an intraperitoneal injection of pentobarbital solution, Somlethal ®, J. A. Webster Inc. Sterling Mass. The entire bladder was removed and immediately placed into Krebs Ringer bicarbonate solution (composition, mM: NaCl, 120; NaHCO3, 20; dextrose, 11; KCl, 4.7; CaCl2, 2.5; MgSO4, 1.5; KH2PO4, 1.2; K2EDTA, 0.01, equilibrated with 5% CO2/95% O2 pH 7.4 at 37° C.). Propranolol (0.004 mM) was included in all of the assays to block β-adrenoceptors. The trigonal and dome portions were discarded. Strips 3-5 mm wide and 20 mm long were prepared from the remaining tissue cut in a circular fashion. The mucosal layer was removed. One end was fixed to a stationary glass rod and the other to a Grass FT03 transducer at a basal preload of 1.0 gram. Two parallel platinum electrodes were included in the stationary glass rod to provide field stimulation of 0.05 Hz, 0.5 milli-seconds at 20 volts. This low frequency stimulation produced a stable twitch response of 100-500 centigrams. Tissues were allowed to equilibrate for at least 60 minutes and primed with 80 mM KCl. A control concentration response curve (cumulative) was generated for each tissue using the potassium channel opener P1075 as the control agonist. […] After a 60 minute rinsing period, a concentration response curve (cumulative) was generated for the test agonist in the same fashion as that used for control agonist P1075. The maximal efficacy of each compound (expressed as % relative to P1075) is reported. The amount of agent necessary to cause 50% of the agent's maximal response (ED50) was calculated using “ALLFIT” (DeLean et al., Am. J. Physiol., 235, E97 (1980)), hereby incorporated by reference. Agonist potencies were also expressed as an index relative to P1075. The index was calculated by dividing the ED50 for P1075 by the ED50 for the test agonist in a given tissue. Each tissue was used for only one test agonist, and the indices obtained from each tissue were averaged to provide an average index of potency.

SMILES: CC(C)(C)C(NC(=O)c1cc(F)cc(F)c1)Nc1c(Nc2cccnc2Cl)c(=O)c1=O (single isomer, unassigned; (+)) [Example 110, (+) N-(1-{[3,4-Dioxo-2-(2-chloro3-pyridinylamino)-1-cyclobuten-1-yl]amino}-2,2-dimethylpropyl)-3,5-difluorobenzamide]
- melting point: 215 to 216 °C

SMILES: Cc1ccc(C(=O)NC(Nc2c(Nc3cccnc3)c(=O)c2=O)C(C)(C)C)cc1 (stereo not drawn) [Example 1, N-(1-{[3,4-Dioxo-2-(3-pyridinylamino)-1-cyclobuten-1-yl]amino}-2,2-dimethylpropyl)-4-methylbenzamide]
- Maximal Response (%P1075) [1]: 91 %P1075
- Index [2]: 0.008

SMILES: CC(C)(C)C(NC(=O)c1ccc(Cl)cc1)Nc1c(Nc2cccnc2)c(=O)c1=O (stereo not drawn) [Example 2, 4-Chloro-N-(1-{[3,4-dioxo-2-(3-pyridinylamino)-1-cyclobuten-1-yl]amino}-2,2-dimethylpropyl)benzamide]
- Maximal Response (%P1075) [1]: 108 %P1075
- Index [2]: 0.047

SMILES: C=CCC(C)(C)C(NC(=O)c1ccc(Cl)cc1)Nc1c(Nc2cccnc2)c(=O)c1=O (stereo not drawn) [Example 17, 4-Chloro-N-(-1-{[3,4-dioxo-2-(3-pyridinylamino)-1-cyclobuten-1-yl]amino}-2,2-dimethyl-4-pentenyl)benzamide]
- Maximal Response (%P1075) [1]: 96 %P1075
- Index [2]: 0.028

SMILES: CC(C)(Cc1ccccc1)C(NC(=O)c1ccc(Cl)cc1)Nc1c(Nc2cccnc2)c(=O)c1=O (stereo not drawn) [Example 18, 4-Chloro-N-(-1-{[3,4-dioxo-2-(3-pyridinylamino)-1-cyclobuten-1-yl]amino}-2,2-dimethyl-3-phenylpropyl)benzamide]
- EC50 [1]: 510 nM
- Maximal Response (%P1075) [1]: 97 %P1075
- Index [2]: 0.055
- EC50 ([2]; Sus scrofa): 17000 nM
- Emax ([2]; Sus scrofa): 62%

SMILES: CCC(CC)(CCC#N)C(NC(=O)c1ccc(Cl)cc1)Nc1c(Nc2cccnc2)c(=O)c1=O (stereo not drawn) [Example 19, 4-Chloro-N-(4-cyano-1-{[3,4-dioxo-2-(3-pyridinylamino)-1-cyclobuten-1-yl]amino}-2,2-diethylbutyl)benzamide]
- Maximal Response (%P1075) [1]: <20 %P1075

SMILES: C=CCOCC(CC)(COCC=C)C(NC(=O)c1ccc(Cl)cc1)Nc1c(Nc2cccnc2)c(=O)c1=O (stereo not drawn) [Example 20, N-(2,2-Bis[(allyloxy)methyl]-1-{[3,4-dioxo-2-(3-pyridinylamino)-1-cyclobuten-1-yl]amino}butyl)-4-chlorobenzamide]
- Maximal Response (%P1075) [1]: 98 %P1075

SMILES: CC(C)(C)C(NC(=O)c1ccc(I)cc1)NS(=O)(=O)Nc1cccnc1 (stereo not drawn) [Example 34, N-(2,2-Dimethyl-1-{[(3-pyridinylamino)sulfonyl]amino}propyl)-4-iodobenzamide]
- melting point: 177 to 178 °C

SMILES: CC(C)(C)C(NC(=O)c1cc(Cl)cc(Cl)c1)Nc1c(Nc2cncc(C(F)(F)F)c2)c(=O)c1=O (stereo not drawn) [Example 53, 3,5-Dichloro-N-{1-[(3,4-dioxo-2-{[5-(trifluoromethyl)pyridin-3-yl]amino}-1-cyclobuten-1-yl)amino]-2,2-dimethylpropyl}benzamide]
- melting point: 233 to 234 °C

SMILES: Cc1cccc(C(=O)NC(Nc2c(Nc3cccnc3)c(=O)c2=O)C(C)(C)Cc2ccccc2)c1 (stereo not drawn) [Example 60, N-(1-{[3,4-Dioxo-2-(3-pyridinylamino)-1-cyclobuten-1-yl]amino}-2,2-dimethyl-3-phenylpropyl)-3-methylbenzamide]
- EC50 [1]: 93 nM
- Maximal Response (%P1075) [1]: 83 %P1075
- Index [2]: 0.87
- EC50 ([2]; Sus scrofa): 680 nM
- Emax ([2]; Sus scrofa): 88%

SMILES: CC(C)(C)C(NC(=O)c1cc(Cl)cc(Cl)c1)Nc1c(Nc2cccnc2Cl)c(=O)c1=O (stereo not drawn) [Example 79, 3,5-Dichloro-N-[1-({2-[(2-chloropyridin-3-yl)amino]-3,4-dioxocyclobut-1-en-1-yl}amino)-2,2-dimethylpropyl]benzamide]
- Index [2]: 0.024
- EC50 ([2]; Sus scrofa): 4600 nM
- Emax ([2]; Sus scrofa): 60%

SMILES: COc1ncccc1Nc1c(NC(NC(=O)c2cccc(C)c2)C(C)(C)C)c(=O)c1=O (stereo not drawn) [Example 81, N-[1-({2-[(2-Methoxypyridin-3-yl)amino]3,4-dioxo-1-cyclobuten-1-yl}amino)-2,2-dimethylpropyl]-3-methylbenzamide]
- melting point: 224 to 226 °C

SMILES: COc1ncccc1Nc1c(NC(NC(=O)c2cc(F)cc(F)c2)C(C)(C)C)c(=O)c1=O (stereo not drawn) [Example 82, 3,5-Difluoro-N-[1-({2-[(2-methoxypyridin-3-yl)amino]-3,4-dioxo-1-cyclobuten-1-yl}amino)-2,2-dimethylpropyl]benzamide]
- melting point: 221 to 223 °C

SMILES: CC(C)(Cc1ccccc1)C(NC(=O)c1ccccc1)Nc1c(Nc2cccnc2)c(=O)c1=O (stereo not drawn) [Example 86]
- Index [2]: 0.24
- EC50 [2]: 640 nM
- Efficacy (%P1075) [2]: 85 %P1075

SMILES: CC(C)(C)C(NC(=O)CCc1ccccc1)Nc1c(Nc2cccnc2Cl)c(=O)c1=O (stereo not drawn) [Example 87, N-[1-({2-[(2-chloropyridin-3-yl)amino]-3,4-dioxo-1-cyclobuten-1-yl}amino)-2,2-dimethylpropy1]-3-phenylpropanamide]
- Index [2]: 0.039
- EC50 [2]: 1900 nM
- Efficacy (%P1075) [2]: 96 %P1075

SMILES: CC(C)(C)[C@H](NC(=O)c1cc(Cl)cc(Cl)c1)Nc1c(Nc2cccnc2Cl)c(=O)c1=O [Example 108, (+) 3,5-Dichloro-N-[(1S)-1-({2-[(2-chloropyridin-3-yl)amino]-3,4-dioxocyclobut-1-en-1-yl}amino)-2,2-dimethylpropyl]benzamide]
- Index [2]: 0.033
- EC50 ([2]; Sus scrofa): 4200 nM
- Emax ([2]; Sus scrofa): 89%

SMILES: CCC(C)(C)N=C(NC#N)Nc1cccnc1 [Example P1075, reference compound]
- effect on stimulated twitch ([2]; control agonist, dose dependent, 10^−9 to 10^−5 M): completely eliminated the stimulated twitch
